Positions count from the first letter of the chain named.
Columns and labels:
Assay in all cases: HEK assay: α-Gal A activity in HEK-293 cell lysate with migalastat
Assay type in all cases: cell-based
[1] = molecular target: T1, α-Gal A mutant form p.Asp33Gly (c.98 A > G) (Homo sapiens, UniProt P06280, D33G)
T1 construct: expressed in transfected cells; host or cells: HEK-293
T1 sequence (P06280 32-429 D33G): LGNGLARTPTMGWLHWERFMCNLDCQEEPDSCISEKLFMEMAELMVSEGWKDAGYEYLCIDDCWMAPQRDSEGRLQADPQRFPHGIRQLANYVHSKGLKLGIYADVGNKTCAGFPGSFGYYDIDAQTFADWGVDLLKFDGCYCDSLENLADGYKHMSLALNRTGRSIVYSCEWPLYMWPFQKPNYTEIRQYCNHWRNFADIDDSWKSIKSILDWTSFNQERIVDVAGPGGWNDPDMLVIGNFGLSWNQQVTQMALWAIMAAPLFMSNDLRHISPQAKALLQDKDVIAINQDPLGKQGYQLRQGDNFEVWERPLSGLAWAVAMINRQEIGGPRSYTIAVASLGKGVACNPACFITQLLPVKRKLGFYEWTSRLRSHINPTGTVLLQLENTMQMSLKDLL
Protocol: (§1) Such mutations are also referred to herein as “HEK assay amenable” mutations.
(§2) In this assay, cDNA constructs are created. The corresponding α-Gal A mutant forms are transiently expressed in HEK-293 cells. Cells are then incubated±migalastat (17 nM to 1 mM) for 4 to 5 days. After, α-Gal A levels are measured in cell lysates using a synthetic fluorogenic substrate (4-MU-α-Gal) or by western blot. This has been done for known disease-causing missense or small in-frame insertion/deletion mutations.

[2] = molecular target: T2, α-Gal A mutant form p.Gly373Ser (c.1117 G > A) (Homo sapiens, UniProt P06280, G373S)
T2 construct: expressed in transfected cells; host or cells: HEK-293
T2 sequence (P06280 32-429 G373S): T1 sequence (P06280 32-429 D33G) with G2D, G342S
Protocol: as §1, §2

[3] = molecular target: T3, α-Gal A mutant form p.Gly271Ser; Asp313Tyr (c.811 G > A; c.937 G > T) (Homo sapiens, UniProt P06280, D313Y/G271S)
T3 construct: expressed in transfected cells; host or cells: HEK-293
T3 sequence (P06280 32-429 G271S/D313Y): T1 sequence (P06280 32-429 D33G) with G2D, G240S, D282Y
Protocol: as §1, §2

[4] = molecular target: T4, α-Gal A mutant form p.Met284Thr (c.851 T > C) (Homo sapiens, UniProt P06280, M284T)
T4 construct: expressed in transfected cells; host or cells: HEK-293
T4 sequence (P06280 32-429 M284T): T1 sequence (P06280 32-429 D33G) with G2D, M253T
Protocol: as §1, §2

[5] = molecular target: T5, α-Gal A mutant form p.Arg301Gln (c.902 G > A) (Homo sapiens, UniProt P06280, R301Q)
T5 construct: expressed in transfected cells; host or cells: HEK-293
T5 sequence (P06280 32-429 R301Q): T1 sequence (P06280 32-429 D33G) with G2D, R270Q
Protocol: as §1, §2

[6] = +10 μM migalastat, HEK-293 cell lysate, mean ± SEM, n = 20
[7] = HEK293, 10 μM migalastat minus baseline, read-out: Absolute increase at 10 μM (% WT)

Question: With `OC[C@H]1NC[C@H](O)[C@@H](O)[C@H]1O` [migalastat] as the molecule, how does the “α-Gal A activity at 10 μM (fold over baseline)” value ([1]; 10 μM migalastat) read?
Answer: 2.42 fold over baseline

Question: What about the “+Migalastat α-Gal A activity” value [1, 6] of the same molecule?
Answer: 24033 ± 865 nmol/mg/h

Question: And the “+Migalastat α-Gal A activity % WT” value [1, 6]?
Answer: 70.6 ± 2.4 % WT

Question: And the activation at 10 µM [1, 7]?
Answer: 41.3%

Question: And the “α-Gal A activity at 10 μM (fold over baseline)” value ([2]; 10 μM migalastat)?
Answer: 3.32 fold over baseline

Question: What about the “+Migalastat α-Gal A activity” value [2, 6] of the same molecule?
Answer: 5128 ± 288 nmol/mg/h

Question: What about the “+Migalastat α-Gal A activity % WT” value [2, 6] of the same molecule?
Answer: 15.7 ± 0.8 % WT

Question: What about the activation at 10 µM [2, 7] of the same molecule?
Answer: 10.9%

Question: What about the “Absolute increase at 10 μM (% WT)” value ([3]; 10 μM migalastat minus baseline) of the same molecule?
Answer: 3.0 % WT

Question: What about the “+Migalastat α-Gal A activity” value [3, 6] of the same molecule?
Answer: 877 ± 18 nmol/mg/h

Question: What about the “+Migalastat α-Gal A activity % WT” value [3, 6] of the same molecule?
Answer: 3.0 ± 0.2 % WT

Question: And the “α-Gal A activity at 10 μM (fold over baseline)” value ([4]; 10 μM migalastat)?
Answer: 8.33 fold over baseline

Question: And the “+Migalastat α-Gal A activity” value [4, 6]?
Answer: 5050 ± 268 nmol/mg/h

Question: What about the “+Migalastat α-Gal A activity % WT” value [4, 6] of the same molecule?
Answer: 14.3 ± 0.6 % WT

Question: And the activation at 10 µM [4, 7]?
Answer: 12.6%

Question: And the “α-Gal A activity at 10 μM (fold over baseline)” value ([5]; 10 μM migalastat)?
Answer: 8.12 fold over baseline

Question: And the “+Migalastat α-Gal A activity” value [5, 6]?
Answer: 15547 ± 353 nmol/mg/h

Question: And the “+Migalastat α-Gal A activity % WT” value [5, 6]?
Answer: 44.5 ± 1.0 % WT

Question: What about the activation at 10 µM [5, 7] of the same molecule?
Answer: 39%

Source: patent publication US20210038579A1, “Treatment Of Patients With Classic Fabry Disease” (Amicus Therapeutics, Inc., priority 2018, published 2021)
